# Assay results reported in PubChem BioAssay (NCI).
#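 Results reflect a 48-hour exposure of cells in 96-well plates to compound at five concentrations. Definition used: TGI = concentration required for complete inhibition of growth.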
# What was measured:
# Test in all cases: inhibition of tumour cell growth, NCI panel, 48 h
# OVCAR-5 ovarian = system: OVCAR-5 ovarian
# EKVX NSCLC = system: EKVX NSCLC
# SK-MEL-2 melanoma = system: SK-MEL-2 melanoma
# UACC-257 melanoma = system: UACC-257 melanoma
# COLO 205 colon = system: COLO 205 colon
# HCC-2998 colon = system: HCC-2998 colon
# A549 NSCLC = system: A549 NSCLC
# KM20L2 colon = system: KM20L2 colon
# SR leukemia = system: SR leukemia
# KM12 colon = system: KM12 colon
# NCI-H226 lung = system: NCI-H226 lung
# SF-295 CNS = system: SF-295 CNS
# NCI-H23 lung = system: NCI-H23 lung
# NCI-H460 lung = system: NCI-H460 lung
# SK-OV-3 ovarian = system: SK-OV-3 ovarian
# K-562 leukemia = system: K-562 leukemia
# SF-268 CNS = system: SF-268 CNS
# SW-620 colon = system: SW-620 colon
# MOLT-4 leukemia = system: MOLT-4 leukemia
# ACHN renal = system: ACHN renal
# MALME-3M melanoma = system: MALME-3M melanoma
# LXFL 529 NSCLC = system: LXFL 529 NSCLC
# NCI-H522 lung = system: NCI-H522 lung
# M19-MEL melanoma = system: M19-MEL melanoma
# SNB-75 CNS = system: SNB-75 CNS
# U251 CNS = system: U251 CNS
# HOP-18 NSCLC = system: HOP-18 NSCLC
# SNB-19 CNS = system: SNB-19 CNS
# HL-60(TB) leukemia = system: HL-60(TB) leukemia
# DLD-1 colon = system: DLD-1 colon
# SK-MEL-28 melanoma = system: SK-MEL-28 melanoma
# LOX IMVI melanoma = system: LOX IMVI melanoma
# IGROV1 ovarian = system: IGROV1 ovarian
# CAKI-1 renal = system: CAKI-1 renal
# DMS 114 small cell lung = system: DMS 114 small cell lung
# OVCAR-4 ovarian = system: OVCAR-4 ovarian
# 786-0 renal = system: 786-0 renal
# SF-539 CNS = system: SF-539 CNS
# SN12C renal = system: SN12C renal
# RXF 393 renal = system: RXF 393 renal
# CCRF-CEM leukemia = system: CCRF-CEM leukemia
# OVCAR-8 ovarian = system: OVCAR-8 ovarian
# HOP-62 NSCLC = system: HOP-62 NSCLC
# M14 melanoma = system: M14 melanoma
# HCT-15 colon = system: HCT-15 colon
# HT29 colon = system: HT29 colon
# SNB-78 CNS = system: SNB-78 CNS
# TK-10 renal = system: TK-10 renal
# XF 498 CNS = system: XF 498 CNS
# HCT-116 colon = system: HCT-116 colon
# DMS 273 small cell lung = system: DMS 273 small cell lung
# UACC-62 melanoma = system: UACC-62 melanoma
# HOP-92 NSCLC = system: HOP-92 NSCLC
# A498 renal = system: A498 renal
# OVCAR-3 ovarian = system: OVCAR-3 ovarian
# UO-31 renal = system: UO-31 renal
# RPMI-8226 leukemia = system: RPMI-8226 leukemia
# SK-MEL-5 melanoma = system: SK-MEL-5 melanoma
smiles,measurement,setting,value
CC(C)(C)c1cc([Si](C)(C)C)c(C#N)c([Si](C)(C)C)c1,TGI,OVCAR-5 ovarian,> 100 µM
same,TGI,EKVX NSCLC,> 100 µM
same,TGI,SK-MEL-2 melanoma,> 100 µM
same,TGI,UACC-257 melanoma,> 100 µM
same,TGI,COLO 205 colon,> 100 µM
same,TGI,HCC-2998 colon,> 100 µM
same,TGI,A549 NSCLC,> 100 µM
same,TGI,KM20L2 colon,> 100 µM
same,TGI,SR leukemia,85.5 µM
same,TGI,KM12 colon,> 100 µM
same,TGI,NCI-H226 lung,> 100 µM
same,TGI,SF-295 CNS,> 100 µM
same,TGI,NCI-H23 lung,> 100 µM
same,TGI,NCI-H460 lung,> 100 µM
same,TGI,SK-OV-3 ovarian,> 100 µM
same,TGI,K-562 leukemia,> 100 µM
same,TGI,SF-268 CNS,> 100 µM
same,TGI,SW-620 colon,> 100 µM
same,TGI,MOLT-4 leukemia,> 100 µM
same,TGI,ACHN renal,> 100 µM
same,TGI,MALME-3M melanoma,> 100 µM
same,TGI,LXFL 529 NSCLC,> 100 µM
same,TGI,NCI-H522 lung,> 100 µM
same,TGI,M19-MEL melanoma,> 100 µM
same,TGI,SNB-75 CNS,> 100 µM
same,TGI,U251 CNS,> 100 µM
same,TGI,HOP-18 NSCLC,> 100 µM
same,TGI,SNB-19 CNS,> 100 µM
same,TGI,HL-60(TB) leukemia,44.2 µM
same,TGI,DLD-1 colon,> 100 µM
same,TGI,SK-MEL-28 melanoma,> 100 µM
same,TGI,LOX IMVI melanoma,> 100 µM
same,TGI,IGROV1 ovarian,> 100 µM
same,TGI,CAKI-1 renal,> 100 µM
same,TGI,DMS 114 small cell lung,> 100 µM
same,TGI,OVCAR-4 ovarian,> 100 µM
same,TGI,786-0 renal,> 100 µM
same,TGI,SF-539 CNS,> 100 µM
same,TGI,SN12C renal,> 100 µM
same,TGI,RXF 393 renal,> 100 µM
same,TGI,CCRF-CEM leukemia,> 100 µM
same,TGI,OVCAR-8 ovarian,> 100 µM
same,TGI,HOP-62 NSCLC,> 100 µM
same,TGI,M14 melanoma,> 100 µM
same,TGI,HCT-15 colon,> 100 µM
same,TGI,HT29 colon,> 100 µM
same,TGI,SNB-78 CNS,> 100 µM
same,TGI,TK-10 renal,> 100 µM
same,TGI,XF 498 CNS,67 µM
same,TGI,HCT-116 colon,> 100 µM
same,TGI,DMS 273 small cell lung,> 100 µM
same,TGI,UACC-62 melanoma,> 100 µM
same,TGI,HOP-92 NSCLC,> 100 µM
same,TGI,A498 renal,> 100 µM
same,TGI,OVCAR-3 ovarian,> 100 µM
same,TGI,UO-31 renal,> 100 µM
O=C(Cn1cc(I)c(C(=O)NCC(O)CO)n1)NCC(O)CO (stereo not given),TGI,EKVX NSCLC,> 100 µM
same,TGI,SK-MEL-2 melanoma,> 100 µM
same,TGI,UACC-257 melanoma,> 100 µM
same,TGI,COLO 205 colon,> 100 µM
same,TGI,HCC-2998 colon,> 100 µM
same,TGI,A549 NSCLC,> 100 µM
same,TGI,KM20L2 colon,> 100 µM
same,TGI,KM12 colon,> 100 µM
same,TGI,NCI-H226 lung,> 100 µM
same,TGI,SF-295 CNS,> 100 µM
same,TGI,NCI-H23 lung,> 100 µM
same,TGI,NCI-H460 lung,> 100 µM
same,TGI,SK-OV-3 ovarian,> 100 µM
same,TGI,K-562 leukemia,> 100 µM
same,TGI,SF-268 CNS,> 100 µM
same,TGI,SW-620 colon,> 100 µM
same,TGI,MOLT-4 leukemia,> 100 µM
same,TGI,ACHN renal,> 100 µM
same,TGI,MALME-3M melanoma,> 100 µM
same,TGI,LXFL 529 NSCLC,> 100 µM
same,TGI,NCI-H522 lung,> 100 µM
same,TGI,M19-MEL melanoma,> 100 µM
same,TGI,SNB-75 CNS,> 100 µM
same,TGI,U251 CNS,> 100 µM
same,TGI,HOP-18 NSCLC,> 100 µM
same,TGI,SNB-19 CNS,> 100 µM
same,TGI,RPMI-8226 leukemia,> 100 µM
same,TGI,HL-60(TB) leukemia,> 100 µM
same,TGI,DLD-1 colon,> 100 µM
same,TGI,SK-MEL-28 melanoma,> 100 µM
same,TGI,LOX IMVI melanoma,> 100 µM
same,TGI,IGROV1 ovarian,> 100 µM
same,TGI,DMS 114 small cell lung,> 100 µM
same,TGI,OVCAR-4 ovarian,> 100 µM
same,TGI,786-0 renal,> 100 µM
same,TGI,SF-539 CNS,> 100 µM
same,TGI,SN12C renal,> 100 µM
same,TGI,RXF 393 renal,> 100 µM
same,TGI,CCRF-CEM leukemia,> 100 µM
same,TGI,OVCAR-8 ovarian,> 100 µM
same,TGI,HOP-62 NSCLC,> 100 µM
same,TGI,M14 melanoma,> 100 µM
same,TGI,HCT-15 colon,> 100 µM
same,TGI,HT29 colon,> 100 µM
same,TGI,SNB-78 CNS,> 100 µM
same,TGI,TK-10 renal,> 100 µM
same,TGI,XF 498 CNS,> 100 µM
same,TGI,HCT-116 colon,> 100 µM
same,TGI,DMS 273 small cell lung,> 100 µM
same,TGI,UACC-62 melanoma,> 100 µM
same,TGI,HOP-92 NSCLC,> 100 µM
same,TGI,A498 renal,> 100 µM
same,TGI,OVCAR-3 ovarian,> 100 µM
same,TGI,UO-31 renal,> 100 µM
C#CCN(Cc1ccc2nc(-c3ccccc3)c(Cl)nc2c1)c1ccc(Cl)c(Cl)c1,TGI,OVCAR-5 ovarian,> 100 µM
same,TGI,EKVX NSCLC,> 100 µM
same,TGI,SK-MEL-2 melanoma,> 100 µM
same,TGI,UACC-257 melanoma,> 100 µM
same,TGI,COLO 205 colon,> 100 µM
same,TGI,HCC-2998 colon,96.8 µM
same,TGI,A549 NSCLC,> 100 µM
same,TGI,KM20L2 colon,> 100 µM
same,TGI,SR leukemia,> 100 µM
same,TGI,KM12 colon,> 100 µM
same,TGI,SF-295 CNS,> 100 µM
same,TGI,NCI-H23 lung,> 100 µM
same,TGI,NCI-H460 lung,> 100 µM
same,TGI,SK-OV-3 ovarian,> 100 µM
same,TGI,K-562 leukemia,> 100 µM
same,TGI,SF-268 CNS,> 100 µM
same,TGI,SW-620 colon,> 100 µM
same,TGI,MOLT-4 leukemia,> 100 µM
same,TGI,ACHN renal,> 100 µM
same,TGI,MALME-3M melanoma,> 100 µM
same,TGI,LXFL 529 NSCLC,> 100 µM
same,TGI,NCI-H522 lung,> 100 µM
same,TGI,M19-MEL melanoma,> 100 µM
same,TGI,SK-MEL-5 melanoma,> 100 µM
same,TGI,SNB-75 CNS,> 100 µM
same,TGI,U251 CNS,> 100 µM
same,TGI,HOP-18 NSCLC,> 100 µM
same,TGI,SNB-19 CNS,> 100 µM
same,TGI,HL-60(TB) leukemia,> 100 µM
same,TGI,DLD-1 colon,> 100 µM
same,TGI,SK-MEL-28 melanoma,> 100 µM
same,TGI,LOX IMVI melanoma,> 100 µM
same,TGI,IGROV1 ovarian,> 100 µM
same,TGI,CAKI-1 renal,> 100 µM
same,TGI,DMS 114 small cell lung,> 100 µM
same,TGI,OVCAR-4 ovarian,> 100 µM
same,TGI,786-0 renal,> 100 µM
same,TGI,SF-539 CNS,> 100 µM
same,TGI,SN12C renal,> 100 µM
same,TGI,CCRF-CEM leukemia,> 100 µM
same,TGI,OVCAR-8 ovarian,> 100 µM
same,TGI,HOP-62 NSCLC,> 100 µM
same,TGI,M14 melanoma,> 100 µM
same,TGI,HCT-15 colon,> 100 µM
same,TGI,HT29 colon,> 100 µM
same,TGI,SNB-78 CNS,> 100 µM
same,TGI,TK-10 renal,> 100 µM
same,TGI,XF 498 CNS,> 100 µM
same,TGI,HCT-116 colon,> 100 µM
same,TGI,DMS 273 small cell lung,> 100 µM
same,TGI,UACC-62 melanoma,> 100 µM
same,TGI,HOP-92 NSCLC,> 100 µM
same,TGI,A498 renal,> 100 µM
same,TGI,OVCAR-3 ovarian,> 100 µM
same,TGI,UO-31 renal,> 100 µM
